Laboratory results published in PubChem BioAssay (NCI).
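Exposure lasted 48 hours, with cells grown in 96-well plates and compounds tested at five concentrations. GI50 marks 50% less growth. TGI: concentration producing complete growth inhibition.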

Tests used:
Experiment in all cases: inhibition of tumour cell growth, NCI panel, 48 h
786-0 renal = system: 786-0 renal
A498 renal = system: A498 renal
A549 NSCLC = system: A549 NSCLC
ACHN renal = system: ACHN renal
BT-549 breast = system: BT-549 breast
CAKI-1 renal = system: CAKI-1 renal
CCRF-CEM leukemia = system: CCRF-CEM leukemia
COLO 205 colon = system: COLO 205 colon
DU-145 prostate = system: DU-145 prostate
EKVX NSCLC = system: EKVX NSCLC
HCC-2998 colon = system: HCC-2998 colon
HCT-116 colon = system: HCT-116 colon
HCT-15 colon = system: HCT-15 colon
HL-60(TB) leukemia = system: HL-60(TB) leukemia
HOP-62 NSCLC = system: HOP-62 NSCLC
HOP-92 NSCLC = system: HOP-92 NSCLC
HS 578T breast = system: HS 578T breast
HT29 colon = system: HT29 colon
IGROV1 ovarian = system: IGROV1 ovarian
K-562 leukemia = system: K-562 leukemia
KM12 colon = system: KM12 colon
LOX IMVI melanoma = system: LOX IMVI melanoma
M14 melanoma = system: M14 melanoma
MALME-3M melanoma = system: MALME-3M melanoma
MCF7 breast = system: MCF7 breast
MDA-MB-231 breast = system: MDA-MB-231 breast
MDA-MB-435 = system: MDA-MB-435
MOLT-4 leukemia = system: MOLT-4 leukemia
NCI-H226 lung = system: NCI-H226 lung
NCI-H23 lung = system: NCI-H23 lung
NCI-H460 lung = system: NCI-H460 lung
NCI-H522 lung = system: NCI-H522 lung
NCI/ADR-RES ovarian = system: NCI/ADR-RES ovarian
OVCAR-3 ovarian = system: OVCAR-3 ovarian
OVCAR-4 ovarian = system: OVCAR-4 ovarian
OVCAR-5 ovarian = system: OVCAR-5 ovarian
OVCAR-8 ovarian = system: OVCAR-8 ovarian
PC-3 prostate = system: PC-3 prostate
RPMI-8226 leukemia = system: RPMI-8226 leukemia
RXF 393 renal = system: RXF 393 renal
SF-268 CNS = system: SF-268 CNS
SF-295 CNS = system: SF-295 CNS
SF-539 CNS = system: SF-539 CNS
SK-MEL-2 melanoma = system: SK-MEL-2 melanoma
SK-MEL-28 melanoma = system: SK-MEL-28 melanoma
SK-MEL-5 melanoma = system: SK-MEL-5 melanoma
SK-OV-3 ovarian = system: SK-OV-3 ovarian
SN12C renal = system: SN12C renal
SNB-19 CNS = system: SNB-19 CNS
SNB-75 CNS = system: SNB-75 CNS
SR leukemia = system: SR leukemia
SW-620 colon = system: SW-620 colon
T-47D breast = system: T-47D breast
TK-10 renal = system: TK-10 renal
U251 CNS = system: U251 CNS
UACC-62 melanoma = system: UACC-62 melanoma
UO-31 renal = system: UO-31 renal

Cc1ccc(Cl)cc1-c1nc(N)nc(Nc2ccc(Br)cc2)n1
GI50 (786-0 renal): 59.6 nM | TGI (786-0 renal): > 100000 nM | GI50 (A498 renal): 32.6 nM | TGI (A498 renal): 2470 nM | GI50 (A549 NSCLC): 66.3 nM | TGI (A549 NSCLC): > 100000 nM | GI50 (ACHN renal): 91.1 nM | TGI (ACHN renal): > 100000 nM | GI50 (BT-549 breast): 58.1 nM | GI50 (CAKI-1 renal): 19200 nM | TGI (CAKI-1 renal): > 100000 nM | GI50 (CCRF-CEM leukemia): 44.4 nM | GI50 (COLO 205 colon): 45.4 nM | TGI (COLO 205 colon): 254 nM | GI50 (DU-145 prostate): 69 nM | TGI (DU-145 prostate): > 56500 nM | GI50 (EKVX NSCLC): 667 nM | TGI (EKVX NSCLC): > 100000 nM | GI50 (HCC-2998 colon): 160 nM | GI50 (HCT-116 colon): 43.5 nM | TGI (HCT-116 colon): > 100000 nM | GI50 (HCT-15 colon): 53.5 nM | TGI (HCT-15 colon): > 100000 nM | GI50 (HL-60(TB) leukemia): 30.5 nM | GI50 (HOP-62 NSCLC): 72.3 nM | TGI (HOP-62 NSCLC): > 100000 nM | GI50 (HOP-92 NSCLC): 2280 nM | TGI (HOP-92 NSCLC): > 100000 nM | GI50 (HS 578T breast): 45.5 nM | TGI (HS 578T breast): > 48500 nM | GI50 (HT29 colon): 36.5 nM | GI50 (IGROV1 ovarian): 150 nM | TGI (IGROV1 ovarian): > 100000 nM | GI50 (K-562 leukemia): 42.2 nM | TGI (K-562 leukemia): > 100000 nM | GI50 (KM12 colon): 50.3 nM | TGI (KM12 colon): > 100000 nM | GI50 (LOX IMVI melanoma): 68.7 nM | TGI (LOX IMVI melanoma): > 100000 nM | GI50 (M14 melanoma): 41.4 nM | TGI (M14 melanoma): > 100000 nM | GI50 (MALME-3M melanoma): 70.3 nM | TGI (MALME-3M melanoma): > 100000 nM | GI50 (MCF7 breast): 45.6 nM | TGI (MCF7 breast): > 100000 nM | GI50 (MDA-MB-231 breast): 139 nM | TGI (MDA-MB-231 breast): > 100000 nM | GI50 (MDA-MB-435): 22.2 nM | TGI (MDA-MB-435): 59.8 nM | GI50 (MOLT-4 leukemia): 88.3 nM | TGI (MOLT-4 leukemia): > 22100 nM | GI50 (NCI-H226 lung): 1740 nM | GI50 (NCI-H23 lung): 73.9 nM | GI50 (NCI-H460 lung): 38.5 nM | TGI (NCI-H460 lung): > 38700 nM | GI50 (NCI-H522 lung): 33.2 nM | GI50 (NCI/ADR-RES ovarian): 34.7 nM | TGI (NCI/ADR-RES ovarian): 208 nM | GI50 (OVCAR-3 ovarian): 31.7 nM | GI50 (OVCAR-4 ovarian): 274 nM | TGI (OVCAR-4 ovarian): > 100000 nM | GI50 (OVCAR-5 ovarian): 358 nM | TGI (OVCAR-5 ovarian): > 100000 nM | GI50 (OVCAR-8 ovarian): 74.5 nM | TGI (OVCAR-8 ovarian): > 100000 nM | GI50 (PC-3 prostate): 53.8 nM | TGI (PC-3 prostate): > 100000 nM | GI50 (RPMI-8226 leukemia): 85.1 nM | TGI (RPMI-8226 leukemia): > 100000 nM | GI50 (RXF 393 renal): 30.9 nM | TGI (RXF 393 renal): 3990 nM | TGI (SF-268 CNS): > 100000 nM | GI50 (SF-295 CNS): 41 nM | TGI (SF-295 CNS): > 100000 nM | GI50 (SF-539 CNS): 40.6 nM | TGI (SF-539 CNS): > 29000 nM | GI50 (SK-MEL-2 melanoma): 69.2 nM | TGI (SK-MEL-2 melanoma): > 100000 nM | GI50 (SK-MEL-28 melanoma): 126 nM | TGI (SK-MEL-28 melanoma): > 100000 nM | GI50 (SK-MEL-5 melanoma): 41.1 nM | TGI (SK-MEL-5 melanoma): > 100000 nM | GI50 (SK-OV-3 ovarian): 51.7 nM | TGI (SK-OV-3 ovarian): 21000 nM | GI50 (SN12C renal): 62.8 nM | TGI (SN12C renal): > 100000 nM | GI50 (SNB-19 CNS): 83.2 nM | TGI (SNB-19 CNS): > 100000 nM | GI50 (SNB-75 CNS): 29 nM | TGI (SNB-75 CNS): > 100000 nM | GI50 (SR leukemia): 36.1 nM | TGI (SR leukemia): > 100000 nM | GI50 (SW-620 colon): 40.8 nM | TGI (SW-620 colon): > 100000 nM | GI50 (T-47D breast): 22600 nM | TGI (T-47D breast): > 100000 nM | GI50 (TK-10 renal): 3290 nM | TGI (TK-10 renal): > 100000 nM | GI50 (U251 CNS): 46.1 nM | TGI (U251 CNS): 8720 nM | GI50 (UACC-62 melanoma): 59.4 nM | TGI (UACC-62 melanoma): > 100000 nM | GI50 (UO-31 renal): 73.3 nM | TGI (UO-31 renal): > 100000 nM
